Assay results reported in patent US4946842A, “Novel guanidino pyridazinones as cardiac stimulants” (Smith Kline & French Laboratories Limited, priority 1985, dated 1990).

Key:
[1] = test system: ventricular strips; assay: Cardiac stimulant activity in vitro: force of contraction of electrically stimulated ventricular strips; format: cell-based; conditions: Cavia porcellus, read-out: EC50 (50% increase in the force of contraction of the ventricular strips); guinea pig ventricular strips, 37° C., 1.0 Hz, cumulative concentration response
Protocol: The compounds of formula (I) and their pharmaceutically acceptable salts are tested for cardiac stimulant activity following a procedure based on that of S. C. Verma and J. H. McNeill (J.Pharm & Exp. Therapeutics, 200, 352-362 (1977)). Guinea pigs (500-700 g) of either sex are sacrificed and the hearts are quickly removed and transferred to a dissecting dish containing oxygenated bathing fluid. While in the bathing medium, the right ventricle is cut into two strips. The strips are each suspended in a 50 ml bath containing Krebs Henseleit solution at 37° C., and the bath is bubbled with 95% oxygen and 5% carbon dioxide. The ventricular strips are electrically stimulated at a frequency of 1.0 Hz, at double the threshold voltage. A resting tension of 1.0 g is applied to the strips and the tension is kept constant by readjustment during an equilibration period of 60 minutes. The bathing fluid is frequently changed during this period. When a steady base line is obtained, a compound under test is added to the bathing fluid and a cumulative concentration response curve is plotted. The compounds for use in the present invention which were tested gave a 50% increase in the force of contraction of the ventricular strips at concentrations in the bathing fluid of less than 10^-4 molar, thus showing that they have activity as positive inotropic agents.

[2] = test system: left ventricular dp/dt max; assay: Cardiac stimulant activity in vivo (anaesthetised cats): left ventricular dp/dt max; set-up: species or system cat; conditions: Felis catus, iv, read-out: ED50 (dose to increase left ventricular dp/dt max by 50%), i.v., pretreated with ganglion blocker and propranolol
From the text: Cardiac Stimulant Activity--In vivo (Anaesthetised Cats)
# Relative duration was estimated in the anaesthetised cats following the

[3] = test system: PDE (Peak III); assay: Inhibition of PDE (Peak III); conditions: read-out: IC50 (PDE Peak III); 1 μM cyclic AMP
Protocol: (§1) The enzyme was assayed by incubation at 37° for 4-30 min in 50 mM Tris, 5 mM MgCl2, pH 7.5 with [3-H] cyclic nucleotide (4×10^5 disintegrations min^-1) and [14-C] nucleotide 5' monophosphate (3×10^3 disintegrations min^-1). The assay was stopped by boiling, and the [3-H] […] The reaction mixture was diluted with 0.5 ml 100 mM HEPES (N-2-Hydroxyethylpiperazine-N'-2-ethanesulfonic acid), 100 mM NaCl, pH 8.5, and applied to the column. […] The recovery of product as judged by [14-C] recovery was approximately 80%. All assays were linear with time of incubation and concentration of enzyme over the range used in these experiments.

[4] = test system: PDE (Peak I); assay: Substrate kinetics of PDE (Peak I); format: biochemical, cat; conditions: for Relative Vmax: PDE (Peak I), eluted at 0.15 M Na acetate
[5] = test system: PDE (Peak II); conditions: in words
Protocol: as §1

In the case of CC(=O)N=C(N)Nc1ccc(C2=NNC(=O)CC2C)cc1 (stereo not shown) [Example 1, 6-[4-(N^2-acetylguanidino)phenyl]-5-methyl-4,5-dihydro-3(2H)-pyridazinone], the EC50 [1] is reported as 16 µM, the ED50 [2] is reported as 0.5 µmol/kg and the IC50 [3] is reported as 2.23 µM.
Compound CNC(=NS(C)(=O)=O)Nc1ccc(C2=NNC(=O)CC2C)cc1 (stereo not shown) [Example 2, 6-[4-(N^3-methyl-N^2-methylsulphonylguanidino)phenyl]-5-methyl-4,5-dihydro-3(2H)-pyridazinone] has an ED50 [2] of 0.2 µmol/kg and an IC50 [3] of 2.48 µM.
With CNC(=NS(=O)(=O)c1ccccc1)Nc1ccc(C2=NNC(=O)CC2C)cc1 (stereo not shown) [Example 3, 6-[4-(N^ 3-methyl-N^2-phenylsulphonylguanidino)phenyl]-5-methyl-4,5-dihydro-3(2H)-pyridazinone] the ED50 [2] was 0.1 µmol/kg and the IC50 [3] was 0.23 µM.
In the case of COCCNC(=NC#N)Nc1ccc(C2=NNC(=O)CC2C)cc1 (stereo not shown) [Example 4, 6-[4-(N^3-(2-Methoxyethyl)-N^2-cyanoguanidino)phenyl]-5-methyl-4,5-dihydro-3(2H)-pyridazinone], the EC50 [1] is reported as 2.8 µM and the ED50 [2] is reported as 0.2 µmol/kg.
CC1CC(=O)NN=C1c1ccc(NC(=NC#N)NCCO)cc1 (stereo not shown) [Example 5, 6-[4-(N^3-(2-Hydroxyethyl)-N^2-cyanoguanidino)phenyl]-5-methyl-4,5-dihydro-3(2H)-pyridazinone] gave an EC50 [1] of 8 µM and an ED50 [2] of 0.7 µmol/kg.
With CC1CC(=O)NN=C1c1ccc(NC(=NC#N)NC2CC2)cc1 (stereo not shown) [Example 6] the EC50 [1] was 10 µM and the ED50 [2] was 0.4 µmol/kg.
C=CCNC(=NC#N)Nc1ccc(C2=NNC(=O)CC2C)cc1 (stereo not shown) [Example 7, 6-[4-(N^3 -Allyl-N^2-cyanoguanidino)phenyl]-5-methyl-4,5-dihydro-3(2H)-pyridazinone] showed an EC50 [1] of 10 µM and an ED50 [2] of 0.3 µmol/kg.
With C#CCNC(=NC#N)Nc1ccc(C2=NNC(=O)CC2C)cc1 (stereo not shown) [Example 8, 6-[4-(N^3 -Propargyl-N^2-cyanoguanidino)phenyl]-5-methyl-4,5-dihydro-3(2H)-pyridazinone] the EC50 [1] was 18 µM and the ED50 [2] was 0.4 µmol/kg.
Work on CC1CC(=O)NN=C1c1ccc(NC(=NC#N)NCc2ccc(O)cc2)cc1 (stereo not shown) [Example 9, 6-[4-(N^3-(4-Hydroxybenzyl)-N^2-cyanoguanidino)phenyl]-5-methyl-4,5-dihydro-3(2H)-pyridazinone] yielded an ED50 [2] of 0.4 µmol/kg and an IC50 [3] of 0.08 µM.
For CC1CC(=O)NN=C1c1ccc(NC(=NC#N)NCc2ccccc2)cc1 (stereo not shown) [Example 10, 6-[4-(N^3 -Benzyl-N^2-cyanoguanidino)phenyl]-5-methyl-4,5-dihydro-3(2H)-pyridazinone], the EC50 [1] was 0.8 µM and the ED50 [2] was 0.1 µmol/kg.
COc1ccc(CNC(=NC#N)Nc2ccc(C3=NNC(=O)CC3C)cc2)cc1 (stereo not shown) [Example 11, 6-[4-(N^3-(4-Methoxybenzyl)-N^2-cyanoguanidino)phenyl]-5-methyl-4,5-dihydro-3(2H)-pyridazinone] gave an ED50 [2] of 0.5 µmol/kg.
Work on CC1CC(=O)NN=C1c1ccc(NC(=NC#N)NCc2ccccn2)cc1 (stereo not shown) [Example 12, 6-[4-(N^3-(2-Pyridylmethyl)-N^2-cyanoguanidino)phenyl]-5-methyl-4,5-dihydro-3(2H)-pyridazinone] yielded an EC50 [1] of 12 µM.
CC1CC(=O)NN=C1c1ccc(NC(=NC#N)NCCc2ccccc2)cc1 (stereo not shown) [Example 13, 6-[4-(N^3 -Phenethyl-N^2-cyanoguanidino)phenyl]-5-methyl-4,5-dihydro-3(2H)-pyridazinone] was tested, and the EC50 [1] was 12.5 µM.
Nc1nc2c(ncn2[C@@H]2O[C@@H]3COP(=O)(O)O[C@H]3[C@H]2O)c(=O)[nH]1 [cyclic GMP] was tested, and the “Relative Vmax” value ([4]; 50 μg/ml calmodulin added) was 7.2, the “Relative Vmax” value ([4]; without calmodulin) was 1.1 and the “affinity of PDE (Peak I)” value ([4]; in words) was “high affinity”. The “affinity of PDE (Peak II)” value [5] was “relatively low affinities”.
